The record followed here is US10154970B2, “Methods for immunomodulation of cancer and infectious disease therapy” (The Regents of the University of California, priority 2014, dated 2018).

For assay [1], the system named is regulatory T cell (Treg). The settings on record: chronic daily TRIP 50 mg/kg + two cycles of PV. The protocol: A total of 55 mixed-sex hMUC1.Tg C57BL/6 mice, starting at approximately five weeks of age, were treated with urethane as described above. Approximately six weeks after the last dose of urethane, mice were randomized into four treatment groups of approximately equal average weight: Control (n=22); TRIP (i.e., ospemifene) 50 mg/kg (n=16); tecemotide (L-BLP25) peptide vaccine (PV) (n=6); and TRIP+PV (n=11). At this time (Week 21), mice assigned to the […] began treatment with the first of two cycles consisting of eight weekly 10 μg doses each, with approximately four weeks between cycles. Cycle 1 was administered during Weeks 21-28, and Cycle 2 from Weeks 32-39. The PV was prepared and administered as described above. Mice in the TRIP groups began daily oral treatment in Week 31, which continued through the end of the study (approximately eight weeks of dosing). TRIP was prepared and administered as described above. Mice not assigned to TRIP treatment received daily oral doses of diluent. At the conclusion of the study, 48 h after the final dose of PV and 24 h after the last dose of TRIP, all mice were euthanized for the collection of serum and spleens, which were processed as described above for multiplex serum cytokine, Treg, and CTL analyses.

In assay [2] the test system is IFN-γ. Briefly: Experiment 5: serum IFN-γ cytokine analysis. It counts as in vivo, human MUC1.Tg C57BL/6 mice. The settings on record: TRIP 100 mg/kg or letrozole 0.8 mg/kg daily oral 14 days. The protocol:
FIG. 13. Effects of TRIP on serum IFN-γ compared to estradiol and letrozole. Serum IFN-γ from untreated control, TRIP (100 mg/kg), estradiol (E2; 25 μg/kg), and letrozole (0.8 mg/kg) groups were analyzed following daily treatment for 14 days (n=8 all groups). **p<0.01, ***p<0.001.
TRIP and letrozole were prepared in DMSO and peanut oil as described above in Experiment 2 and administered daily for 14 days by oral gavage (100 μL). Estradiol was dissolved in 100% ethanol, diluted in PBS to achieve the desired concentration, and then administered daily for 14 days by s.c. injection at rotating sites using a 25-gauge needle. In Week 19, the study was terminated, 24 hours after the last treatments, and serum and spleens were collected for surface marker and Treg analyses.

The test system of assay [3] is IFN-γ. Nature of the assay: IFN-γ mRNA expression in Jurkat cells by qRT-PCR, normalized with GAPDH. Type of assay: cell-based, human. The protocol:
FIG. 1. Interferon gamma (IFN-γ) and interleukin (IL)-2 expression in human Jurkat cells following exposure to TRIP in vitro. Jurkat cells (2×10^6) were treated with different concentrations of TRIP as indicated for 24 hours. (A) IFN-γ and (B) IL-2 mRNA expression levels were detected by quantitative real-time polymerase chain reaction (qRT-PCR) and normalized with the expression of GAPDH. *p<0.05, **p<0.01, ***p<0.001.
FIG. 2. Effect of tamoxifen on TRIP-induced expression of IFN-γ in vitro. Jurkat cells (2×10^6) were treated with TRIP (2.5 μM) and/or tamoxifen (2.5 μM) for 24 hours. The expression levels of IFN-γ were analyzed by qRT-PCR and normalized with GAPDH. **p<0.01, ***p<0.005.
FIG. 3. Effects of TRIP alone and in combination with trifluoperazine (TFP) or LY294002 (LY) on IFN-γ and IL-2 in human Jurkat cells in vitro. Jurkat cells (2×10^6) were pretreated with different concentrations of (A, B) TFP (0, 0.1, 1.0, 5.0, and 10.0 μM) and (C, D) LY294002 (0, 1, 5, 10, and 25 μM) for 1 hour, then incubated with medium containing 2.5 μM of TRIP for 24 hours. (A, C) IFN-γ and (B, D) IL-2 mRNA expression levels were detected by qRT-PCR and normalized with the expression of GAPDH. *p<0.05, **p<0.01, ***p<0.001.
FIG. 4. Effects of calmodulin, PI3K and MAPK inhibition on TRIP-induced expression of IFN-γ and IL-2 in human Jurkat cells in vitro. Jurkat cells (2×10^6) were pretreated with PD98059 (50 μM), TFP (10 μM) and LY294002 (25 μM) for 1 hour, then incubated with medium containing 2.5 μM of TRIP for 24 hours. (A) IFN-γ and (B) IL-2 mRNA expression levels were detected by qRT-PCR and normalized with the expression of GAPDH. **p<0.01, ***p<0.001, ****p<0.0001.
The potential immune regulating effects of TRIP and the possible mechanism(s) involved were determined with in vitro experiments examining the expression of T cell activating cytokines in human acute T cell leukemia Jurkat cells. The expression of IFN-γ and IL-2 RNA following exposure to increasing concentrations of TRIP (i.e., ospemifene) were first examined, followed by the effects of combining tamoxifen with TRIP on the expression of these cytokines. Different inhibitors of key T cell activation pathways—trifluoperazine (TFP), an inhibitor of calmodulin, LY294002, an inhibitor of PI3K, and PD98059, a MAPK inhibitor—in combination with TRIP were assessed for their effects on TRIP-induced expression of IFN-γ and IL-2 in Jurkat cells.
Jurkat cells (2.0×10^6) were treated with different concentrations of TRIP as indicated on the x-axis for 24 hours. (A) IFN-γ and (B) IL-2 mRNA expression levels were detected by quantitative real-time polymerase chain reaction (qRT-PCR) and normalized with the expression of GAPDH. *p<0.05, **p<0.01, ***p<0.001.
The expression levels of IFN-γ were analyzed by qRT-PCR and normalized with GAPDH. **p<0.01, ***p<0.001.
T cell activation requires multiple signals including PI3K, MAPK and calcium signaling pathways, and in order to identify the potential mechanism through which TRIP affects immune activation, Jurkat cells (2.0×10^6) were pretreated with different concentrations of TFP (0, 0.1, 1.0, 5.0 and 10.0 μM) (A, B) or LY294002 (0, 1, 5, 10 and 25 μM) (C, D) for one hour, then incubated with medium containing 2.5 μM TRIP for 24 hours. IFN-γ and IL-2 expression levels were detected by qRT-PCR and normalized with the expression of GAPDH. *p<0.05, **p<0.01, ***p<0.001.
Jurkat cells (2×10^6) were pretreated with PD98059 (50 μM), TFP (10 μM) or LY294002 (25 μM) for one hour, then incubated with medium containing 2.5 μM TRIP for 24 hours. (A) IFN-γ and (B) IL-2 mRNA expression levels were detected by qRT-PCR and normalized with expression of GAPDH. **p<0.01, ***p<0.001, ****p<0.0001.
The effects on T cell activation of different functional group substitutions on the TRIP chemical structure (Formula Ia) were examined by measuring the expression of IFN-γ and IL-2 RNA in human acute T cell leukemia Jurkat cells in vitro. […]
A general note: Real-time PCR tracks product formation cycle by cycle.

As to `OCCOc1ccc(/C(=C(/CCCl)c2ccccc2)c2ccccc2)cc1` [TRIP, Z-2-[4-(4-chloro-1,2-diphenyl-but-1-enyl)-phenoxy]ethanol], the “PV-induced immune response as assessed by Treg expression” value in assay [1] is given as “did not significantly affect”. Further, the “serum IFN-γ concentrations compared to estradiol” value in assay [2] was “significantly increased”. In addition, the “expression of IFN-γ compared to control, TRIP+tamoxifen” value in assay [3] (Jurkat cells, TRIP 2.5 μM plus tamoxifen 2.5 μM, 24 hours (FIG. 2)) was “significantly increased”. Besides, the “IFN-γ RNA expression compared to control” value in assay [3] (Jurkat cells, different concentrations of TRIP, 24 hours, dose-dependent (FIG. 1A)) is reported as “significantly induced”. Besides, the “expression of IFN-γ compared to control” value in assay [3] (Jurkat cells, single agent 2.5 μM, 24 hours (FIG. 2)) is recorded as “significantly increased”. In assay [3] (mRNA in Jurkat cells in vitro, relative to control sample without TRIP compound), the “IFN-γ Expression” value is “+++ (strong increase)”.
